Measured values reported in patent US20060241172A1, “Benzodioxane and benzodioxolane derivatives and uses thereof” (Wyeth, priority 2005, published 2006).
pEC50: −log10 of the molar value. Where a name gives a salt, the structure may show the parent alone.

Target: T1, human 5-HT2C receptor (Homo sapiens, UniProt P28335)
T1 sequence (P28335 33-458): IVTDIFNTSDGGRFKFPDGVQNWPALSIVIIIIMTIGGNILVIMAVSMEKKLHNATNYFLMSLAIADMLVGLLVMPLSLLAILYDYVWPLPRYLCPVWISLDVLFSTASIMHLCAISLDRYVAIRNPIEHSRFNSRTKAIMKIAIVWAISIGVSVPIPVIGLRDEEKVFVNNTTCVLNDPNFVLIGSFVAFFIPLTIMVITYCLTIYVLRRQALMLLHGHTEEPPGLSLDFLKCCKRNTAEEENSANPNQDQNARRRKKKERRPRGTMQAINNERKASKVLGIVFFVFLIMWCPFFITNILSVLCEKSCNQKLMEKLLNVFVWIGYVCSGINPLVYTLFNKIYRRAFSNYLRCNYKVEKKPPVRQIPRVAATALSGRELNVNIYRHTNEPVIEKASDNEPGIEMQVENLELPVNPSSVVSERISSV
Experiment: 5-HT2C receptor-stimulated calcium mobilization (FLIPR) in CHO cells
Type: cell-based
Conditions: CHO; read-out: 5-HT2C Function EMax (%)

For `CNCC1COc2cccc(-c3ccccc3C)c2O1` (stereo not drawn) [Compound I-17, N-Methyl-N-{[8-(2-methylphenyl)-2,3-dihydro-1,4-benzodioxin-2-yl]methyl}amine], which Emax is on record?
Its Emax is 60%.

For `CNCC1COc2cccc(-c3cccc(Cl)c3Cl)c2O1` (stereo not drawn) [Compound I-22, {[8-(2,3-Dichlorophenyl)-2,3-dihydro-1,4-benzodioxin-2-yl]methyl}methylamine], which Emax is on record?
The Emax was 40%.

For `CNCC1COc2cccc(-c3cccc(C)c3C)c2O1` (stereo not drawn) [Compound I-25, {[8-(2,3-Dimethylphenyl)-2,3-dihydro-1,4-benzodioxin-2-yl]methyl}methylamine], which Emax is on record?
The Emax was 30%.

With `CNCC1COc2cccc(-c3cc(C)ccc3C)c2O1` (stereo not drawn) [Compound I-26, {[8-(2,5-Dimethylphenyl)-2,3-dihydro-1,4-benzodioxin-2-yl]methyl}methylamine] as the molecule, how does the Emax read?
Its Emax is 50%.

With `CNCC1COc2cccc(-c3cccc(F)c3F)c2O1` (stereo not drawn) [Compound I-27, {[8-(2,3-Difluorophenyl)-2,3-dihydro-1,4-benzodioxin-2-yl]methyl}methylamine] as the molecule, how does the Emax read?
The Emax was 20%.

For `CNCC1COc2cccc(-c3ccc(F)cc3F)c2O1` (stereo not drawn) [Compound I-28, {[8-(2,4-Difluorophenyl)-2,3-dihydro-1,4-benzodioxin-2-yl]methyl}methylamine], which Emax is on record?
The Emax was 30%.

Same assay, conditions: read-out: 5-HT2C Function EC50

With `CNCC1COc2cccc(-c3ccccc3C)c2O1` (stereo not drawn) [Compound I-17, N-Methyl-N-{[8-(2-methylphenyl)-2,3-dihydro-1,4-benzodioxin-2-yl]methyl}amine] as the molecule, how does the pEC50 read?
The pEC50 was over 7.00.

With `CNCC1COc2cccc(-c3cccc(Cl)c3Cl)c2O1` (stereo not drawn) [Compound I-22, {[8-(2,3-Dichlorophenyl)-2,3-dihydro-1,4-benzodioxin-2-yl]methyl}methylamine] as the molecule, how does the pEC50 read?
Its pEC50 is over 7.00.

With `CNCC1COc2cccc(-c3cccc(C)c3C)c2O1` (stereo not drawn) [Compound I-25, {[8-(2,3-Dimethylphenyl)-2,3-dihydro-1,4-benzodioxin-2-yl]methyl}methylamine] as the molecule, how does the pEC50 read?
The pEC50 was under 6.30.

With `CNCC1COc2cccc(-c3cc(C)ccc3C)c2O1` (stereo not drawn) [Compound I-26, {[8-(2,5-Dimethylphenyl)-2,3-dihydro-1,4-benzodioxin-2-yl]methyl}methylamine] as the molecule, how does the pEC50 read?
The pEC50 was over 7.00.

With `CNCC1COc2cccc(-c3cccc(F)c3F)c2O1` (stereo not drawn) [Compound I-27, {[8-(2,3-Difluorophenyl)-2,3-dihydro-1,4-benzodioxin-2-yl]methyl}methylamine] as the molecule, how does the pEC50 read?
Its pEC50 is 6.30 to 7.00.

With `CNCC1COc2cccc(-c3ccc(F)cc3F)c2O1` (stereo not drawn) [Compound I-28, {[8-(2,4-Difluorophenyl)-2,3-dihydro-1,4-benzodioxin-2-yl]methyl}methylamine] as the molecule, how does the pEC50 read?
Its pEC50 is under 6.30.

With `CNCC1COc2cccc(-c3cc(F)ccc3F)c2O1` (stereo not drawn) [Compound I-29, {[8-(2,5-Difluorophenyl)-2,3-dihydro-1,4-benzodioxin-2-yl]methyl}methylamine] as the molecule, how does the pEC50 read?
The pEC50 was under 6.30.

Same assay, conditions: reference compounds; read-out: EC50

With `Cc1cc2c(cc1Cl)N(C(=O)Nc1ccc(Oc3cccnc3C)nc1)CC2` [SB242084, reference compound] as the molecule, how does the pEC50 read?
The pEC50 was 11.00.

System: not given
Experiment: not given
Conditions: not given

For `NCC1COc2cccc(-c3ccccc3Cl)c2O1` (stereo not drawn) (as salt: fumarate) [Compound I-1, {[8-(2-Chlorophenyl)-2,3-dihydro-1,4-benzodioxin-2-yl]methyl}amine], which melting point is on record?
Its melting point is 210 to 211 °C.

With `NCC1COc2cccc(-c3ccccc3F)c2O1` (stereo not drawn) (as salt: fumarate) [Compound I-2, {[8-(2-Fluorophenyl)-2,3-dihydro-1,4-benzodioxin-2-yl]methyl}amine] as the molecule, how does the melting point read?
Its melting point is 188 to 190 °C.

Which melting point does the source give for `Cc1ccccc1-c1cccc2c1OC(CN)CO2` (stereo not drawn) (as salt: fumarate) [Compound I-3, {[8-(2-Methylphenyl)-2,3-dihydro-1,4-benzodioxin-2-yl]methyl}amine] here?
Its melting point is 201 to 202 °C.

With `NCC1COc2cccc(-c3ccccc3C(F)(F)F)c2O1` (stereo not drawn) (as salt: fumarate) [Compound I-4, ({8-[2-(Trifluoromethyl)phenyl]-2,3-dihydro-1,4-benzodioxin-2-yl}methyl)amine] as the molecule, how does the melting point read?
The melting point was 208 to 209 °C.

For `COc1ccccc1-c1cccc2c1OC(CN)CO2` (stereo not drawn) (as salt: fumarate) [Compound I-5, {[8-(2-Methoxyphenyl)-2,3-dihydro-1,4-benzodioxin-2-yl]methyl}amine], which melting point is on record?
Its melting point is 186 to 187 °C.

For `NCC1COc2cccc(-c3cccc(Cl)c3Cl)c2O1` (stereo not drawn) (as salt: fumarate) [Compound I-6, {[8-(2,3-Dichlorophenyl)-2,3-dihydro-1,4-benzodioxin-2-yl]methyl}amine], which melting point is on record?
Its melting point is 211 to 212 °C.

With `NCC1COc2cccc(-c3ccc(Cl)cc3Cl)c2O1` (stereo not drawn) (as salt: fumarate) [Compound I-7, {[8-(2,4-Dichlorophenyl)-2,3-dihydro-1,4-benzodioxin-2-yl]methyl}amine] as the molecule, how does the melting point read?
Its melting point is 192 to 193 °C.

For `NCC1COc2cccc(-c3cc(Cl)ccc3Cl)c2O1` (stereo not drawn) (as salt: fumarate) [Compound I-8, {[8-(2,5-Dichlorophenyl)-2,3-dihydro-1,4-benzodioxin-2-yl]methyl}amine], which melting point is on record?
Its melting point is 206 to 207 °C.

Which melting point does the source give for `COc1cccc(-c2cccc3c2OC(CN)CO3)c1OC` (stereo not drawn) (as salt: fumarate) [Compound I-9, {[8-(2,3-Dimethoxyphenyl)-2,3-dihydro-1,4-benzodioxin-2-yl]methyl}amine] here?
Its melting point is 198 to 199 °C.

For `Cc1cccc(-c2cccc3c2OC(CN)CO3)c1C` (stereo not drawn) (as salt: fumarate) [Compound I-10, {[8-(2,3-Dimethylphenyl)-2,3-dihydro-1,4-benzodioxin-2-yl]methyl}amine], which melting point is on record?
The melting point was 204 to 205 °C.

For `Cc1ccc(C)c(-c2cccc3c2OC(CN)CO3)c1` (stereo not drawn) (as salt: fumarate) [Compound I-11, {[8-(2,5-Dimethylphenyl)-2,3-dihydro-1,4-benzodioxin-2-yl]methyl}amine], which melting point is on record?
The melting point was 199 to 200 °C.

Which melting point does the source give for `Cc1cccc(C)c1-c1cccc2c1OC(CN)CO2` (stereo not drawn) (as salt: fumarate) [Compound I-12, {[8-(2,6-Dimethylphenyl)-2,3-dihydro-1,4-benzodioxin-2-yl]methyl}amine] here?
Its melting point is 205 to 206 °C.

Which melting point does the source give for `NCC1COc2cccc(-c3cccc(F)c3F)c2O1` (stereo not drawn) (as salt: fumarate) [Compound I-13, {[8-(2,3-Difluorophenyl)-2,3-dihydro-1,4-benzodioxin-2-yl]methyl}amine] here?
The melting point was 189 to 190 °C.

For `NCC1COc2cccc(-c3ccc(F)cc3F)c2O1` (stereo not drawn) (as salt: fumarate) [Compound I-14, {[8-(2,4-Difluorophenyl)-2,3-dihydro-1,4-benzodioxin-2-yl]methyl}amine], which melting point is on record?
Its melting point is 183 to 184 °C.

Which melting point does the source give for `NCC1COc2cccc(-c3cc(F)ccc3F)c2O1` (stereo not drawn) (as salt: fumarate) [Compound I-15, {[8-(2,5-Difluorophenyl)-2,3-dihydro-1,4-benzodioxin-2-yl]methyl}amine] here?
Its melting point is 189 to 190 °C.

With `COc1ccc(Cl)cc1-c1cccc2c1OC(CN)CO2` (stereo not drawn) (as salt: fumarate) [Compound I-16, {[8-(5-Chloro-2-methoxyphenyl)-2,3-dihydro-1,4-benzodioxin-2-yl]methyl}amine] as the molecule, how does the melting point read?
The melting point was 192 to 193 °C.

Which melting point does the source give for `CNCC1COc2cccc(-c3ccccc3C)c2O1` (stereo not drawn) (as salt: fumarate) [Compound I-17, N-Methyl-N-{[8-(2-methylphenyl)-2,3-dihydro-1,4-benzodioxin-2-yl]methyl}amine] here?
The melting point was 177 to 178 °C.

For `CNCC1COc2cccc(-c3ccccc3F)c2O1` (stereo not drawn) (as salt: fumarate) [Compound I-18, {[8-(2-Fluorophenyl)-2,3-dihydro-1,4-benzodioxin-2-yl]methyl}methylamine], which melting point is on record?
The melting point was 191 to 192 °C.

For `CNCC1COc2cccc(-c3ccccc3OC)c2O1` (stereo not drawn) (as salt: fumarate) [Compound I-19, {[8-(2-Methoxyphenyl)-2,3-dihydro-1,4-benzodioxin-2-yl]methyl}methylamine], which melting point is on record?
The melting point was 168 to 169 °C.

Which melting point does the source give for `CNCC1COc2cccc(-c3ccccc3C(F)(F)F)c2O1` (stereo not drawn) (as salt: fumarate) [Compound I-20, N-Methyl-1-{8-[2-(trifluoromethyl)phenyl]-2,3-dihydro-1,4-benzodioxin-2-yl}methanamine] here?
The melting point was 184 to 185 °C.

Which melting point does the source give for `CNCC1COc2cccc(-c3ccccc3Cl)c2O1` (stereo not drawn) (as salt: fumarate) [Compound I-21, {[8-(2-Chlorophenyl)-2,3-dihydro-1,4-benzodioxin-2-yl]methyl}methylamine] here?
Its melting point is 174 to 175 °C.

Which melting point does the source give for `CNCC1COc2cccc(-c3cccc(Cl)c3Cl)c2O1` (stereo not drawn) (as salt: fumarate) [Compound I-22, {[8-(2,3-Dichlorophenyl)-2,3-dihydro-1,4-benzodioxin-2-yl]methyl}methylamine] here?
The melting point was 184 to 185 °C.
